In ChEMBL document CHEMBL3507680, “University of Dundee, Gates Library screen for HepG2 cell viability”:

Assay: Human HepG2 cell viability assay in 384 well format
Format: toxicity, cell-based
Design: dose 125 nL, time 70.5 hour; cytotoxicity at 70.5 h: concentration not given beside the values
Conditions: HepG2 cells, read-out: Inhibition
For `CCC1=N[C@@]2(CC[C@@H]3CN(C(=O)NCc4cccc(F)c4)C[C@@H]32)C(=O)N1`, the cytotoxicity at 70.5 h was -5.99%.
In the case of `O=C(N1CCOCC1)N1CCC2(CC1)CN(c1ccccn1)CCO2`, the cytotoxicity at 70.5 h is reported as -6.33%.
In the case of `COCCN1CCOCC12CCN(C(=O)c1c[nH]c3ccccc13)CC2`, the cytotoxicity at 70.5 h is reported as -13.9%.
In the case of `CC(=O)N1CCC2(CCN(C(=O)c3cccc(C(F)(F)F)c3)CC2)C1`, the cytotoxicity at 70.5 h is reported as 7.98%.
`O=C(NC1CCC1)C1=NOC2(CCN(Cc3ccco3)C2)C1` (centres undefined) gave a cytotoxicity at 70.5 h of 6.54%.
Compound `C=C(C)COc1cccc(CNC(COC)c2ccnn2C)c1` (centres undefined) has a cytotoxicity at 70.5 h of 2.53%.
`O=C1CCC2(CCN(CC[C@H](O)c3ccccc3)CC2)CN1CCO` showed a cytotoxicity at 70.5 h of 1.6%.
In the case of `COc1ccc2c(c1)OCC(Cc1cnccc1N)C2` (centres undefined), the cytotoxicity at 70.5 h is reported as -3.68%.
Work on `Cc1cc(C2CCCN2C(=O)CN2C(=O)OC(C)(C)C2=O)on1` (centres undefined) yielded a cytotoxicity at 70.5 h of -2.6%.
With `CCCS(=O)(=O)N1CCC2(CCCN(Cc3cccc(F)c3F)C2=O)C1` (centres undefined) the cytotoxicity at 70.5 h was -7.34%.
`COCc1cn(C2CCN(CCC(C)c3ccccc3)CC2)nn1` (centres undefined) showed a cytotoxicity at 70.5 h of -12.1%.
`Cc1cc(C)n(CC(C)NC(=O)c2cc(C(C)C)on2)n1` (centres undefined) gave a cytotoxicity at 70.5 h of -4.49%.
`Cc1cc2nc(C(C)C)cc(NCCc3ccncc3)n2n1` showed a cytotoxicity at 70.5 h of -13.2%.
`CCNC(=O)[C@@H]1C[C@@H](NC(=O)c2ccsc2)CN1CCCSC` gave a cytotoxicity at 70.5 h of -3.62%.
`O=C(O)c1cccc(CC2CCN(c3cnccn3)CC2)c1` showed a cytotoxicity at 70.5 h of -2.92%.
Compound `CC(c1ccon1)N(C)C(=O)C1CCN(C(=O)C2CC2)CC1` (centres undefined) has a cytotoxicity at 70.5 h of -4.84%.
In the case of `c1cncc(CN2CCc3ncnc(NCCc4c[nH]cn4)c3CC2)c1`, the cytotoxicity at 70.5 h is reported as -1.46%.
Work on `CCN1CC2(CCC1=O)CCN(Cc1cc(F)ccc1Cl)CC2` yielded a cytotoxicity at 70.5 h of -0.396%.
For `CC(C)(N)c1cn(C2CCN(c3ncccc3Cl)CC2)nn1`, the cytotoxicity at 70.5 h was -9.17%.
For `CCc1cnc(NCCS(=O)(=O)CC(C)C)nc1`, the cytotoxicity at 70.5 h was 19.7%.
`Cc1ccc(N2CCN(C(=O)[C@@H]3CCC(=O)N3)CC2=O)cc1` gave a cytotoxicity at 70.5 h of -7.74%.
Compound `O=C(C1CCC1)N1CCN(Cc2ccc(F)cc2)[C@H]2CS(=O)(=O)C[C@H]21` has a cytotoxicity at 70.5 h of -3.17%.
Work on `c1ccc(CCc2n[nH]c(CCN3CCCCC3)n2)cc1` yielded a cytotoxicity at 70.5 h of -13.4%.
In the case of `O=C(NCCc1c[nH]cn1)c1ccc(S(=O)(=O)NC2CCCC2)cc1`, the cytotoxicity at 70.5 h is reported as -1.62%.
`Cc1cc(C)cc(N2CCN(C(=O)CCN3C[C@@H]4CC[C@H]3C4)CC2=O)c1` gave a cytotoxicity at 70.5 h of -11.2%.
With `CCC(C)N(Cc1ccncc1)Cc1ccccc1Cn1cccn1` (centres undefined) the cytotoxicity at 70.5 h was -11.3%.
`CN(Cc1nc(Cc2cccc(F)c2)no1)C1CCOCC1` gave a cytotoxicity at 70.5 h of -13.9%.
In the case of `CCO[C@H]1COC[C@@H]1NC(=O)CCc1nc(-c2ccccc2)no1`, the cytotoxicity at 70.5 h is reported as -8.01%.
In the case of `CS(=O)(=O)N1CCC(c2nccn2Cc2ccccn2)CC1`, the cytotoxicity at 70.5 h is reported as -5.19%.
With `C=C1C(C)(C)[C@H]2CC[C@]1(C(=O)N1CCC(Cn3cc(CO)nn3)CC1)C2` the cytotoxicity at 70.5 h was 26.1%.
With `O=C(CN1CCOc2ccccc2C1)N1Cc2cnn(CCO)c2C1` the cytotoxicity at 70.5 h was -0.755%.
`CC(O)C(=O)N1CCC(c2[nH]ncc2-c2ccccc2)CC1` (centres undefined) showed a cytotoxicity at 70.5 h of 20.2%.
`CCN(CC)CCN(C)Cc1cn(C)nc1-c1ccc2c(c1)OCCO2` gave a cytotoxicity at 70.5 h of 23.5%.
In the case of `Cc1n[nH]c(C)c1CCN(C)c1ccc(-c2nc(C3CC3)no2)cn1`, the cytotoxicity at 70.5 h is reported as 4.49%.
In the case of `Cc1cc(N2CCC(c3ncc[nH]3)CC2)cc(C)n1`, the cytotoxicity at 70.5 h is reported as -3.01%.
For `CC(C)S(=O)(=O)N1CCCC(c2nccn2Cc2cccnc2)C1` (centres undefined), the cytotoxicity at 70.5 h was -8.01%.
`Cn1ccnc1CNc1nccc(-c2ncnn2C)n1` showed a cytotoxicity at 70.5 h of -14.8%.
`Cc1ccc(C(C(=O)NCCc2nc(C)cc(=O)[nH]2)N(C)C)cc1` (centres undefined) gave a cytotoxicity at 70.5 h of 7.05%.
In the case of `Cn1cc(C2=CCN(CCCC(=O)Nc3ccc(C#N)cc3)CC2)cn1`, the cytotoxicity at 70.5 h is reported as 18.4%.
With `Cc1nc2c(C(=O)O)cccc2n1-c1ccc(C(=O)N2CCCC2)o1` the cytotoxicity at 70.5 h was 7.08%.
`CCn1nc(C)c(CNC(=O)C2COc3ccccc3C2)c1C` (centres undefined) showed a cytotoxicity at 70.5 h of -8.01%.
In the case of `NC(=O)[C@H]1CCCN1C(=O)c1csc(-c2ccc(C(F)(F)F)cc2)n1`, the cytotoxicity at 70.5 h is reported as -6.09%.
With `Cc1ccc(-c2ccnc(N(C)CC3CCCN3C)n2)c(C)n1` (centres undefined) the cytotoxicity at 70.5 h was 16.3%.
With `Cc1cc(F)ccc1C(=O)N1CCN(C)C2(CCC(=O)N(C)CC2)C1` (centres undefined) the cytotoxicity at 70.5 h was -9.21%.
With `CCc1ccc(CN(Cc2ccccc2)CC(C)CO)nc1` (centres undefined) the cytotoxicity at 70.5 h was -6.55%.
In the case of `c1ccc(C2CCCCN2Cc2nc(-c3cnccn3)no2)nc1` (centres undefined), the cytotoxicity at 70.5 h is reported as -1.69%.
Compound `O=C(NCCC1=CCCCC1)c1cc(-c2ccc(O)cc2)n[nH]1` has a cytotoxicity at 70.5 h of -1.77%.
Work on `CCN1CCN(C(=O)c2ccc3c(c2)OCC(=O)N3)[C@H]2CS(=O)(=O)C[C@H]21` yielded a cytotoxicity at 70.5 h of -12.3%.
Compound `Cc1cc(C)c(C(=O)N2CCCC(O)(CN3CCCC3)C2)cc1C` (centres undefined) has a cytotoxicity at 70.5 h of -4.19%.
In the case of `CC(=O)NCCc1ncnn1-c1ccc(F)c(Cl)c1`, the cytotoxicity at 70.5 h is reported as 7.55%.
Work on `Cc1nn(C)c(C)c1CN1CCCC(c2ccc(C(=O)O)cc2)C1` (centres undefined) yielded a cytotoxicity at 70.5 h of -3.35%.
With `Cc1nc[nH]c1C(=O)N1CCCC2(C1)C(=O)N(C)c1ccccc12` (centres undefined) the cytotoxicity at 70.5 h was -3.87%.
`COc1cccc(CN2CCN(c3cccc(C(C)C)n3)CC2)c1F` showed a cytotoxicity at 70.5 h of -0.272%.
`CC(C)[C@H]1CN(Cc2nccn2C)C[C@@H]1NC(=O)COCC(N)=O` showed a cytotoxicity at 70.5 h of -9.51%.
`NCC1Cc2cc(-c3nccc(N4CCC(O)CC4)n3)cc(Cl)c2O1` (centres undefined) showed a cytotoxicity at 70.5 h of 5.41%.
In the case of `CCN(Cc1nc(COC)no1)C(=O)CCn1c(C)cc2ccccc21`, the cytotoxicity at 70.5 h is reported as -0.00353%.
In the case of `CCC[C@@H]1CN(Cc2ccc(N(C)C)nc2)C[C@H]1N(C)C`, the cytotoxicity at 70.5 h is reported as -9.01%.
Work on `Cc1cc(CC(C)Nc2ncnc3cccc(F)c23)[nH]n1` (centres undefined) yielded a cytotoxicity at 70.5 h of 2.32%.
Compound `O=C(NCCc1noc(C2CCCC2)n1)c1cn2ccsc2n1` has a cytotoxicity at 70.5 h of -6.72%.
For `Nc1nc2c(c(NCc3ccncc3)n1)CCCC2`, the cytotoxicity at 70.5 h was 0.39%.
Work on `COc1ccc2c(c1)OCC(CNC(=O)c1ccc3[nH]nnc3c1)C2` (centres undefined) yielded a cytotoxicity at 70.5 h of -9.44%.
`Cc1n[nH]c(C)c1CC(=O)N1CCC2(CC1)CN(C)CCN2C` gave a cytotoxicity at 70.5 h of 23.4%.
Work on `CCN1CC(C(=O)NCCCc2nc(C)c(C)s2)CC1=O` (centres undefined) yielded a cytotoxicity at 70.5 h of -9.75%.
For `Cc1nc2c(c(N3CC=CC3)n1)CCN(c1ncccc1C(N)=O)CC2`, the cytotoxicity at 70.5 h was -2.97%.
`COCc1cc(N2CCN(C3CCCCC3)CC2)n2nccc2n1` showed a cytotoxicity at 70.5 h of -4.81%.
`CCC(CO)N(C/C(C)=C/c1ccco1)Cc1ccccn1` (centres undefined) showed a cytotoxicity at 70.5 h of -6%.
`Cc1ccc(-c2cnnc(N3CCCC3c3nonc3C)n2)o1` (centres undefined) gave a cytotoxicity at 70.5 h of -3.66%.
`OC1(CNCCN2CCCc3ccccc32)CCNC1` (centres undefined) gave a cytotoxicity at 70.5 h of -11.6%.
With `Cc1n[nH]c(C)c1CN(C)C(C(=O)O)c1c(F)cccc1OC(C)C` (centres undefined) the cytotoxicity at 70.5 h was -4.07%.
In the case of `COCc1ncn(Cc2nc(-c3ccc(OC)cc3F)oc2C)n1`, the cytotoxicity at 70.5 h is reported as 51.2%.
For `CC(C)n1cc(C(=O)NCCCc2csc(N)n2)cn1`, the cytotoxicity at 70.5 h was -9.21%.
`CCc1cc(NC2CCS(=O)(=O)C2)nc(N2CCCCC2)n1` (centres undefined) gave a cytotoxicity at 70.5 h of -3.25%.
Compound `CN1CCc2[nH]cnc2C12CCN(C(=O)CCc1cccs1)CC2` has a cytotoxicity at 70.5 h of 16.8%.
Compound `Cc1occc1C(=O)N1C[C@@H]2OCCN(C(C)C)[C@@H]2C1` has a cytotoxicity at 70.5 h of 5.55%.
Compound `Cc1oncc1C(=O)N1CCOCC2(CCN(c3ccccn3)C2)C1` (centres undefined) has a cytotoxicity at 70.5 h of -3.11%.
`CN(C)CC1CN(Cc2ccc(F)cc2)Cc2nccn2C1` (centres undefined) gave a cytotoxicity at 70.5 h of -4.49%.
`CC(C)N1CCO[C@H]2CN(C(=O)c3ccccn3)C[C@H]21` showed a cytotoxicity at 70.5 h of -7.58%.
For `COCCN(C)C1COC2(CCN(Cc3cccc(F)c3)CC2)C1` (centres undefined), the cytotoxicity at 70.5 h was 10.1%.
`CN(Cc1ccncc1)C1COC2(CCN(Cc3ccco3)CC2)C1` (centres undefined) showed a cytotoxicity at 70.5 h of 9.94%.
